{"source": "patent US20240277658A1", "about": "“NLRP3 ACTIVATORS FOR USE IN THE TREATMENT OF INFECTIOUS DISEASES OR CANCER BY ACTIVATING NLRP3 INFLAMMASOME” (ALBERT-LUDWIGS-UNIVERSITÄT FREIBURG, priority 2020, published 2024)", "tested_on": "BMDCs", "assay": "LDH release (lytic cell death, pyroptosis) from LPS-primed BMDCs", "type": "cell-based, mouse", "conditions": "for Average (% positive control): LDH release; for cytotoxicity at 10 µM / cytotoxicity at 20 µM / cytotoxicity at 25 µM / cytotoxicity at 50 µM / cytotoxicity at 18.75 µM: Mus musculus, BMDC; for cytotoxicity at 50 µM: LPS-primed BMDCs", "procedure,_shortened": "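Mouse BMDCs (7-9 days differentiated, GM-CSF) primed with 50 ng ml^−1 E. coli K12 LPS for 3 hours, then exposed 3 hours to compounds (50 μM unless indicated) or activators (nigericin 5 μM; R837, CL097 100 μM). Lytic death measured as LDH release by colorimetric assay, triplicate wells.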", "note": "Where two headings read alike, the source gives them in different places.", "data": [{"smiles": "O=C(Nc1ccccc1)Nc1ccc2ncccc2c1", "note": "[EN22, 1-phenyl-3-(quinolin-6-yl)urea]", "values": [{"measurement": "Average (% positive control)", "setting": "10 μM, positive control EN22 10 μM", "result": 100.000, "unit": "% positive control"}, {"measurement": "Average (% positive control)", "setting": "20 μM, positive control EN22 20 μM", "result": 100.000, "unit": "% positive control"}, {"measurement": "Average (% positive control)", "setting": "25 μM, positive control EN22 25 μM", "result": 100.000, "unit": "% positive control"}, {"measurement": "Average (% positive control)", "setting": "compound 50 μM, positive control nigericin 5 μM", "result": 95.180, "unit": "% positive control"}, {"measurement": "cytotoxicity at 10 µM", "setting": "10 μM, individual replicate values, read-out: LDH release (% of max.)", "result": 78.1, "unit": "%"}, {"measurement": "cytotoxicity at 10 µM", "setting": "10 μM, read-out: Average LDH release (% of max.)", "result": 76.8, "unit": "%"}, {"measurement": "cytotoxicity at 20 µM", "setting": "20 μM, individual replicate values, read-out: LDH release (% of max.)", "result": 49.4, "unit": "%"}, {"measurement": "cytotoxicity at 20 µM", "setting": "20 μM, read-out: Average LDH release (% of max.)", "result": 53.3, "unit": "%"}, {"measurement": "cytotoxicity at 25 µM", "setting": "25 μM, EN11 series table, read-out: Average LDH release (% of max.)", "result": 50.8, "unit": "%"}, {"measurement": "cytotoxicity at 25 µM", "setting": "25 μM, individual replicate values, EN11 series table, read-out: LDH release (% of max.)", "result": 51.9, "unit": "%"}, {"measurement": "cytotoxicity at 50 µM", "setting": "compound 50 μM, read-out: Average LDH release (% of max.)", "result": 69.6, "unit": "%"}, {"measurement": "cytotoxicity at 25 µM", "setting": "section 1.2, 25 μM, read-out: Average LDH release (% of max.)", "result": 30, "unit": "%"}, {"measurement": "cytotoxicity at 25 µM", "setting": "section 1.2, single replicates, 25 μM, read-out: LDH release (% of max.)", "result": 29.6, "unit": "%"}, {"measurement": "cytotoxicity at 18.75 µM", "setting": "section 1.4, 18.75 μM, read-out: Average LDH release (% of max.)", "result": 71.3, "unit": "%"}, {"measurement": "cytotoxicity at 18.75 µM", "setting": "section 1.4, single replicates, 18.75 μM, read-out: LDH release (% of max.)", "result": 71.4, "unit": "%"}, {"measurement": "cytotoxicity at 50 µM", "setting": "single replicates, compound 50 μM, read-out: LDH release (% of max.)", "result": 59.4, "unit": "%"}, {"measurement": "Average (% positive control)", "setting": "section 1.2, 25 μM, positive control EN22 25 μM", "result": 100.000, "unit": "% positive control"}, {"measurement": "Average (% positive control)", "setting": "section 1.4, 18.75 μM, positive control EN22 18.75 μM", "result": 100.000, "unit": "% positive control"}]}]}
